Experimental data reported in article PMC4785407, “Reduction Impairs the Antibacterial Activity but Benefits the LPS Neutralization Ability of Human Enteric Defensin 5” (Scientific Reports, 2016).
Like-named read-outs stand apart in the source and are kept apart here. Bridge positions count the residues as written; N and C are the ends. Peptide text beside a SMILES is read from it.

How the values were obtained:
[1] = system: Salmonella enterica serovar Typhimurium (ATCC 14028); test: virtual colony count assay, S. Typhimurium; type: cell-based; conditions: for LD50 (Lethal Dose that kills 50% of bacteria) / LD90 (Lethal Dose that kills 90% of bacteria): ATCC 14028 S. Typhimurium, 1 × 10^6 CFU/mL, 10 mM sodium phosphate buffer pH 7.4, 1% TSB, 37 °C, 1 h, duplicate, repeated three times
Experimental: (§1) Figure 3 Reduction attenuates the antibacterial activity of HD5OX against Gram-negative bacteria. […] Peptides were prepared in sterile water, with the final concentrations of 0.78, 1.56, 3.13, 6.25, 12.5, and 25 μg/mL. […] Zero survival points are not plotted.

[2] = system: Escherichia coli (ATCC 25922); test: virtual colony count assay, E. coli; type: cell-based; conditions: for LD50 (Lethal Dose that kills 50% of bacteria) / LD90 (Lethal Dose that kills 90% of bacteria): ATCC 25922 E. coli, 1 × 10^6 CFU/mL, 10 mM sodium phosphate buffer pH 7.4, 1% TSB, 37 °C, 1 h, duplicate, repeated three times
Experimental: as §1

[3] = system: E. coli ML35 (ATCC 43827); test: virtual colony count assay, E. coli ML35; type: cell-based; conditions: for LD50 (Lethal Dose that kills 50% of bacteria) / LD90 (Lethal Dose that kills 90% of bacteria): ATCC 43827 E. coli ML35, 1 × 10^6 CFU/mL, 10 mM sodium phosphate buffer pH 7.4, 1% TSB, 37 °C, 1 h, duplicate, repeated three times
Experimental: as §1

[4] = Biolayer interferometry (BLI), binding to lipid A; conditions: for Kd / Koff (dissociation rate constant) / Kon (association rate constant): BLI, 1:1 fit
Experimental: The recruitment of peptides to lipid A (Sigma L5399) was determined using Forte Bio’s “Octet Red 96” BLI (Pall Life Sciences, US). The amine-reactive second-generation (AR2G) biosensor was activated using 20 mM 1-ethyl-3-[3-dimethylaminopropy] carbodiimide hydrochloride (EDC, Sigma E1769) and 10 mM sulfo-N-hydroxysulfosuccinimide (s-NHS, Sigma 56485). Lipid A was immobilized on biosensors at the concentration of 20 μg/mL until the binding curves reached the plateau. Ethanolamine (1 M, pH 8.5) was used to quench the immobilization. Peptides were prepared in the running buffer (5 mM sodium phosphate buffer, pH 7.4), with concentrations of 200, 400, 600, 800, 1000, and 1200 nM, respectively. Association and disassociation, 5 min for each, were carried out at a shaking speed of 600 rpm. Biosensors were regenerated by 0.1 M Glycine-HCl buffer (pH 2.0). […] The binding thicknesses were processed using Fortebio Data Analysis 7.0 software, in which the methods for y-axis alignment, inter-step correction, and Savitzky-Golay filtering were specified. The equilibrium dissociation constant (KD), calculated as the ratio of the dissociation rate constant (Koff) to the association rate constant (Kon), was generated by a 1:1 fitting model. This experiment was repeated three times.
^a The binding kinetics between peptides and bacterial lipid A were determined with a biolayer interferometry (BLI). Lipid A was immobilized on AR2G biosensors at the concentration of 20 μg/mL until the binding curves reached the plateau. Peptides were prepared in the running buffer (5 mM sodium phosphate buffer, pH 7.4), with concentrations of 200, 400, 600, 800, 1000, and 1200 nM, respectively. Association and disassociation, 5 min for each, were carried out at a shaking speed of 600 rpm. The bindings were processed using Fortebio Data Analysis 7.0 software, which specifies the methods for y-axis alignment, inter-step correction, reference subtraction, and Savitzky-Golay filtering. The experiment was repeated three times.
^b Kon, the association rate constant; Koff, the dissociation rate constant; KD, the equilibrium dissociation constant; R^2, the fitting correlation coefficient. These parameters were generated by a 1:1 fitting model. KD is calculated as the ratio of Koff to Kon. […]

[5] = Circular dichroism (CD) spectroscopy; type: physicochemical; conditions: 27 °C; for CD secondary structure in the presence of LPS: 100 μg/mL peptide, 100 μg/mL LPS; for CD secondary structure in SDS micelles: 100 μg/mL, 20 mM SDS
Experimental: The conformational properties of the peptides were analyzed using an Applied Photophysics Chirascan instrument at 27 °C. A cell with a 1-mm path length was utilized. The CD spectra were obtained from 190–280 nm at 1 nm intervals. The time-per-point was 0.5 s, and the scanning time was approximately 73 s. Peptides (100 μg/mL, 250 μL) prepared in sterile water were examined in the presence of 20 mM sodium dodecyl sulfate (SDS) and 100 μg/mL LPS. Before scanning, peptides were incubated with SDS and LPS at room temperature for 1 h. The data obtained from three independent scans were averaged and smoothed by Pro-Data Chirascan software (version 4.1).

[6] = Isothermal titration calorimetry (ITC), peptides and LPS; type: binding; conditions: for interaction with LPS (heat release): 1 mg/mL peptide, 10 μg/mL LPS, 25 °C, repeated three times
Experimental: Interactions between peptides and LPS were monitored using a MicroCal ITC200 system (Malvern, UK) at 25 °C. The concentration of the peptides in the syringe was 1 mg/mL (40 μL). LPS was prepared in sterile water at a concentration of 10 μg/mL (300 μL per cell). Twenty injections (0.2 μL for the first injection and 2 μL for the remaining injections) were applied at 120 s intervals and at a stirring rate of 1,000 rpm. The data were processed by subtracting the baseline heat release from titrations of sterile water into LPS and from 20 mM DTT into LPS. The experiment was repeated three times.

E. coli = test: Antibacterial assay in the presence of LPS; type: cell-based; conditions: 4 μg/mL LPS, 12.5 μg/mL peptide
Experimental: (B) Heat release of the interaction between 1 mg/mL of the peptides and 10 μg/mL of LPS. Shown is the relationship between the enthalpy value (△H) and the weight ratio of peptides to LPS. […] The antibacterial efficiency is presented as the bacterial lethal rate, which is calculated by dividing the number of killed colonies by the number of colonies remaining after treatment with sterile water or 0.25 mM DTT. Statistical significance was determined by the Student’s t-test. n.s, not significant; **p < 0.01.

[7] = virtual colony count, 0.78-25 μg/mL, HD5OX vs HD5RED
[8] = AR2G biosensor, 5 mM sodium phosphate buffer pH 7.4, 200-1200 nM, mean ± SD from three independent assays, read-out: KD (equilibrium dissociation constant) binding to lipid A
[9] = lipid A, repeat 1th, read-out: KD
[10] = lipid A, repeat 2th, read-out: KD
[11] = lipid A, repeat 3th, read-out: KD

SMILES | LD50 (Lethal Dose that kills 50% of bacteria) [1] | LD90 (Lethal Dose that kills 90% of bacteria) [1] | LD50 (Lethal Dose that kills 50% of bacteria) [2] | LD90 (Lethal Dose that kills 90% of bacteria) [2] | LD50 (Lethal Dose that kills 50% of bacteria) [3] | LD90 (Lethal Dose that kills 90% of bacteria) [3] | Kd [4, 8] | Koff (dissociation rate constant) ([4]; lipid A, repeat 1th) | Kon (association rate constant) ([4]; lipid A, repeat 1th) | Kd [4, 9] | Koff (dissociation rate constant) ([4]; lipid A, repeat 2th) | Kon (association rate constant) ([4]; lipid A, repeat 2th) | Kd [4, 10] | Koff (dissociation rate constant) ([4]; lipid A, repeat 3th) | Kon (association rate constant) ([4]; lipid A, repeat 3th) | Kd [4, 11] | CD secondary structure in the presence of LPS [5] | CD secondary structure in SDS micelles [5] | interaction with LPS (heat release) [6] | antibacterial efficiency in presence of LPS (E. coli) | further results
CC[C@H](C)[C@@H]1NC(=O)[C@H](CCC(=O)O)NC(=O)[C@@H]2CSSC[C@@H]3NC(=O)[C@H](Cc4ccc(O)cc4)NC(=O)[C@@H](NC(=O)[C@@H](NC(=O)[C@H](C)N)[C@@H](C)O)CSSC[C@@H](C(=O)N[C@@H](CCCNC(=N)N)C(=O)O)NC(=O)[C@H](CSSC[C@H](NC(=O)[C@H](CCCNC(=N)N)NC(=O)CNC(=O)[C@H]([C@@H](C)O)NC(=O)[C@H](CCCNC(=N)N)NC3=O)C(=O)N[C@@H](C)C(=O)N[C@@H]([C@@H](C)O)C(=O)N[C@@H](CCCNC(=N)N)C(=O)N[C@@H](CCC(=O)O)C(=O)N[C@@H](CO)C(=O)N[C@@H](CC(C)C)C(=O)N[C@@H](CO)C(=O)NCC(=O)N[C@@H](C(C)C)C(=O)N2)NC(=O)[C@H](CC(C)C)NC(=O)[C@H](CCCNC(=N)N)NC(=O)[C@H](Cc2ccc(O)cc2)NC(=O)[C@H](CC(C)C)NC(=O)[C@H](CCCNC(=N)N)NC(=O)CNC(=O)[C@H](CO)NC1=O [HD5OX, Oxidized human defensin 5] (H-ATCYCRTGRCATRESLSGVCEISGRLYRLCCR-OH; disulfide 3-31, 5-20, 10-30; N-terminus and C-terminus assumed) | 4.6 ± 0.5 µg/mL | 9.6 ± 0.7 µg/mL | 3.2 ± 0.7 µg/mL | 7.6 ± 1.1 µg/mL | 4.7 ± 0.8 µg/mL | 11.6 ± 1.7 µg/mL | 75 ± 24 nM | 0.000324 s⁻¹ | 6320 M⁻¹ s⁻¹ | 51.3 nM | 0.000536 s⁻¹ | 5410 M⁻¹ s⁻¹ | 99.1 nM | 0.000509 s⁻¹ | 6830 M⁻¹ s⁻¹ | 74.5 nM | slightly red-shifted | maintained the β-sheet structures | exothermically interacted with 10 μg/mL of LPS | virtually unaffected | antibacterial action against S. Typhimurium, relative [1, 7]: more potent action against these bacteria than HD5RED; antibacterial action against E. coli, relative [2, 7]: more potent action against these bacteria than HD5RED; antibacterial action against E. coli ML35, relative [3, 7]: more potent action against these bacteria than HD5RED
CC[C@H](C)[C@H](NC(=O)[C@H](CCC(=O)O)NC(=O)[C@H](CS)NC(=O)[C@@H](NC(=O)CNC(=O)[C@H](CO)NC(=O)[C@H](CC(C)C)NC(=O)[C@H](CO)NC(=O)[C@H](CCC(=O)O)NC(=O)[C@H](CCCNC(=N)N)NC(=O)[C@@H](NC(=O)[C@H](C)NC(=O)[C@H](CS)NC(=O)[C@H](CCCNC(=N)N)NC(=O)CNC(=O)[C@@H](NC(=O)[C@H](CCCNC(=N)N)NC(=O)[C@H](CS)NC(=O)[C@H](Cc1ccc(O)cc1)NC(=O)[C@H](CS)NC(=O)[C@@H](NC(=O)[C@H](C)N)[C@@H](C)O)[C@@H](C)O)[C@@H](C)O)C(C)C)C(=O)N[C@@H](CO)C(=O)NCC(=O)N[C@@H](CCCNC(=N)N)C(=O)N[C@@H](CC(C)C)C(=O)N[C@@H](Cc1ccc(O)cc1)C(=O)N[C@@H](CCCNC(=N)N)C(=O)N[C@@H](CC(C)C)C(=O)N[C@@H](CS)C(=O)N[C@@H](CS)C(=O)N[C@@H](CCCNC(=N)N)C(=O)O [HD5RED] (H-ATCYCRTGRCATRESLSGVCEISGRLYRLCCR-OH) | 7.9 ± 1.1 µg/mL | 19.5 ± 1.6 µg/mL | 6.5 ± 0.8 µg/mL | 12.9 ± 1.3 µg/mL | 9.9 ± 0.6 µg/mL | 22.5 ± 2.3 µg/mL | 140 ± 30 nM | 0.000389 s⁻¹ | 2140 M⁻¹ s⁻¹ | 182 nM | 0.000337 s⁻¹ | 2570 M⁻¹ s⁻¹ | 131 nM | 0.000264 s⁻¹ | 2250 M⁻¹ s⁻¹ | 117 nM | adopted a different conformation with two negative ellipticities at 217 nm and 206 nm | transformed into a peptide containing α-helical structures | heat release was higher than that of HD5OX | significantly impaired | fold of concentration needed to inactivate 90% relative to HD5OX ([1]; S. Typhimurium ATCC 14028, higher than HD5OX): 2.0 -fold; fold of concentration needed to inactivate 90% relative to HD5OX ([2]; E. coli ATCC 25922, higher than HD5OX): 1.7 -fold; fold of concentration needed to inactivate 90% relative to HD5OX ([3]; E. coli ML35 ATCC 43827, higher than HD5OX): 1.9 -fold; recruitment to lipid A ([4]; 1000 nM, 5 mM sodium phosphate buffer, HD5RED vs HD5OX): fewer HD5RED than HD5OX molecules were recruited to the lipid A; fold KD relative to HD5OX ([4]; lipid A, higher than HD5OX): 1.9 -fold; CD secondary structure in aqueous ([5]; 100 μg/mL in sterile water, vs HD5OX): less effective in forming rigid β-sheet structures; LPS-binding, relative ([6]; weight ratios ≥8.0, vs HD5OX): much stronger than that of HD5OX
